System: extensively drug-resistant (XDR) clinical strains of M. tuberculosis
Experiment: microbe, parasite or virus in culture
Format: cell-based
Details: for variability of MIC values among strains: thirteen XDR clinical isolates, clavulanate 2.5 μg ml^−1, data not shown

SMILES | variability of MIC values among strains | MIC (Mycobacterium tuberculosis, read-out: MIC value) [µg/mL]
CC1(C)S[C@@H]2[C@H](NC(=O)[C@H](N)c3ccccc3)C(=O)N2[C@H]1C(=O)O [ampicillin] | substantial variability | –
CC(=O)OCC1=C(C(=O)O)N2C(=O)[C@@H](NC(=O)Cc3cccs3)[C@H]2SC1 [cephalothin] | substantial variability | –
C[C@@H](O)[C@H]1C(=O)N2C(C(=O)O)=C(S[C@@H]3CN[C@H](C(=O)N(C)C)C3)[C@H](C)[C@H]12 [meropenem] | – | ≤ 1

— patent US20110190253A1, “METHOD FOR TREATING TUBERCULOSIS” (priority 2008, published 2011)
